Results as given in US12098144B2, “Piperazine indazole glucocorticoid receptor antagonists” (Corcept Therapeutics Incorporated, priority 2021, dated 2024).

What follows are compounds tested against T1, glucocorticoid receptor (Homo sapiens, UniProt P04150) (assay: Hep G2 TAT Ki: inhibition of dexamethasone-induced TAT in HepG2 cells (96 well)). Conditions: challenge of 100 nM dexamethasone, IC50 converted to Ki by Cheng and Prusoff equation.
T1 construct: endogenous in cells; ATCC cat
T1 sequence (P04150 1-777): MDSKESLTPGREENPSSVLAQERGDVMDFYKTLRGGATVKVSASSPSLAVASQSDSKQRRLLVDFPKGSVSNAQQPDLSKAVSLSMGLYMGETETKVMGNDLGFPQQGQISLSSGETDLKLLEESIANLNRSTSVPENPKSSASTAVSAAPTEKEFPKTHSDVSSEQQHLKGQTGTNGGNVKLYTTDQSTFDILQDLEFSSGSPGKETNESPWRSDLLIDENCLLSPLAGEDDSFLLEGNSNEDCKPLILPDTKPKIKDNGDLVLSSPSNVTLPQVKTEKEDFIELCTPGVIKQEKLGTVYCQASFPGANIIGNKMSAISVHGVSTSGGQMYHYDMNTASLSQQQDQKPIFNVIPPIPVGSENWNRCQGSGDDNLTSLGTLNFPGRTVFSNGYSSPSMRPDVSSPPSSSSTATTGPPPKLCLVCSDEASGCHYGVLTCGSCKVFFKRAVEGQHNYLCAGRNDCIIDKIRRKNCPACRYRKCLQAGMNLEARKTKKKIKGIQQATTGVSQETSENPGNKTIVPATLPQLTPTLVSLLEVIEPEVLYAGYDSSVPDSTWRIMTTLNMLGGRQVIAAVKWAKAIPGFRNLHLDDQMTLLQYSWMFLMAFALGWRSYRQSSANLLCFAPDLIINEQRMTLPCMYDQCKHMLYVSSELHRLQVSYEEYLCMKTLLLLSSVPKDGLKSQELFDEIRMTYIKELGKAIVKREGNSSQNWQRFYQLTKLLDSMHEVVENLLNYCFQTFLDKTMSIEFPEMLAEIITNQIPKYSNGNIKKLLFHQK
Assay type: cell-based
In short: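 Cells lysed 15 min at 4 °C; TAT enzyme reaction 2 h at 37 °C, stopped with KOH, 30 min further at 37 °C. Inhibition fitted to 4-parameter logistic.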

SMILES | Ki
Cc1cc2c(cnn2-c2ccc(F)cc2)cc1C1CN(S(=O)(=O)CC2CCOCC2)CCN1CC(C)C (single isomer, unassigned) [Example 61, 1-(4-fluorophenyl)-5-(1-isobutyl-4-(((tetrahydro-2H-pyran-4-yl)methyl)sulfonyl)piperazin-2-yl)-6-methyl-1H-indazole] | 64 nM
Cc1cc2c(cnn2-c2ccc(F)cc2)cc1C1CN(S(=O)(=O)c2cnn(CC(F)(F)F)c2)CCN1CC(C)C (single isomer, unassigned) [Example 110, 1-(4-fluorophenyl)-5-(1-isobutyl-4-((1-(2,2,2-trifluoroethyl)-1H-pyrazol-4-yl)sulfonyl)piperazin-2-yl)-6-methyl-1H-indazole] | 27 nM
Cc1cc2c(cnn2-c2ccc(F)cc2)cc1C1CN(S(=O)(=O)c2cnn(C)n2)CCN1CC(C)C(F)(F)F (single isomer, unassigned) [Example 33] | 11 nM
Cc1cc2c(cnn2-c2ccc(F)cc2)cc1C1CN(S(C)(=O)=O)CCN1Cc1ccccc1 (single isomer, unassigned) [Example 29, 5-(1-benzyl-4-(methylsulfonyl)piperazin-2-yl)-1-(4-fluorophenyl)-6-methyl-1H-indazole] | 74 nM
Cc1ncc(S(=O)(=O)N2CCN(CC(C)C(F)(F)F)C(c3cc4cnn(-c5ccc(F)cc5)c4cc3C)C2)s1 (single isomer, unassigned) [Example 147, 5-((3-(1-(4-fluorophenyl)-6-methyl-1H-indazol-5-yl)-4-(3,3,3-trifluoro-2-methylpropyl)piperazin-1-yl)sulfonyl)-2-methylthiazole] | 11 nM
COCCS(=O)(=O)N1CCN(CC(C)C)C(c2cc3cnn(-c4ccc(F)cc4)c3cc2C)C1 (single isomer, unassigned) [Example 60, 1-(4-fluorophenyl)-5-(1-isobutyl-4-((2-methoxyethyl)sulfonyl)piperazin-2-yl)-6-methyl-1H-indazole] | 28 nM
Cc1cc2c(cnn2-c2cccnc2)cc1C1CN(S(=O)(=O)c2cnn(C)n2)CCN1CCC(F)(F)F (stereo not shown) [Example 167, 6-methyl-5-(4-((2-methyl-2H-1,2,3-triazol-4-yl)sulfonyl)-1-(3,3,3-trifluoropropyl)piperazin-2-yl)-1-(pyridin-3-yl)-1H-indazole] | 59 nM
Cc1cc2c(cnn2-c2ccc(F)cc2)cc1C1CN(S(=O)(=O)c2cnn(C)n2)CCN1CC(C)(C)CO (single isomer, unassigned) [Example 82, 3-(2-(1-(4-fluorophenyl)-6-methyl-1H-indazol-5-yl)-4-((2-methyl-2H-1,2,3-triazol-4-yl)sulfonyl)piperazin-1-yl)-2,2-dimethylpropan-1-ol] | 43 nM
Cc1cc2c(cnn2-c2ccc(F)cc2)cc1C1CN(S(=O)(=O)C2CCC2)CCN1CC(C)C(F)(F)F (single isomer, unassigned) [Example 151, 5-(4-(cyclobutylsulfonyl)-1-(3,3,3-trifluoro-2-methylpropyl)piperazin-2-yl)-1-(4-fluorophenyl)-6-methyl-1H-indazole] | 35 nM
Cc1cc2c(cnn2-c2ccc(F)cc2)cc1C1CN(S(=O)(=O)c2cnn(C)n2)CCN1CC1COC1 (stereo not shown) [Example 16, 1-(4-fluorophenyl)-6-methyl-5-(4-((2-methyl-2H-1,2,3-triazol-4-yl)sulfonyl)-1-(oxetan-3-ylmethyl)piperazin-2-yl)-1H-indazole] | 520 nM
Cc1cc2c(cnn2-c2ccc(F)cc2)cc1C1CN(S(=O)(=O)c2cnn(C)n2)CCN1CC(C)C (stereo not shown) [Example 4, 1-(4-fluorophenyl)-5-(1-isobutyl-4-((2-methyl-2H-1,2,3-triazol-4-yl)sulfonyl)piperazin-2-yl)-6-methyl-1H-indazole] | 41 nM
Cc1cc2c(cnn2-c2ccc(F)cc2)cc1C1CN(S(=O)(=O)c2ccc(C#N)cc2)CCN1CC(C)C(F)(F)F (single isomer, unassigned) [Example 143, 4-((3-(1-(4-fluorophenyl)-6-methyl-1H-indazol-5-yl)-4-(3,3,3-trifluoro-2-methylpropyl)piperazin-1-yl)sulfonyl)benzonitrile] | 25 nM
Cc1cc2c(cnn2-c2ccc(F)cc2)cc1C1CN(S(=O)(=O)c2cnn(C)n2)CCN1Cc1ccon1 (single isomer, unassigned) [Example 81, 3-((2-(1-(4-fluorophenyl)-6-methyl-1H-indazol-5-yl)-4-((2-methyl-2H-1,2,3-triazol-4-yl)sulfonyl)piperazin-1-yl)methyl)isoxazole] | 73 nM
Cc1cc2c(cnn2-c2ccc(F)cc2)cc1C1CN(S(=O)(=O)c2cnccc2C)CCN1CCC(F)(F)F (single isomer, unassigned) [Example 138, 1-(4-fluorophenyl)-6-methyl-5-(4-((4-methylpyridin-3-yl)sulfonyl)-1-(3,3,3-trifluoropropyl)piperazin-2-yl)-1H-indazole] | 35 nM
CC(C)CN1CCN(S(=O)(=O)c2cnn(C)n2)CC1c1cc2cnn(-c3ccc(F)cc3)c2cc1F (stereo not shown) [Example 159, 6-fluoro-1-(4-fluorophenyl)-5-(1-isobutyl-4-((2-methyl-2H-1,2,3-triazol-4-yl)sulfonyl)piperazin-2-yl)-1H-indazole] | 220 nM
CC[C@@H](C)N1CCN(S(=O)(=O)c2cnn(C)n2)C[C@@H]1c1cc2cnn(-c3ccc(F)cc3)c2cc1C (stereo in doubt) [Example 122, 5-(1-(sec-butyl)-4-((2-methyl-2H-1,2,3-triazol-4-yl)sulfonyl)piperazin-2-yl)-1-(4-fluorophenyl)-6-methyl-1H-indazole] | 110 nM
COCCS(=O)(=O)N1CCN(CC(C)C)C(c2cc3cnn(-c4ccc(F)cc4)c3cc2C)C1 (single isomer, unassigned) [Example 45, 1-(4-fluorophenyl)-5-(1-isobutyl-4-((2-methoxyethyl)sulfonyl)piperazin-2-yl)-6-methyl-1H-indazole] | 510 nM
Cc1cc2c(cnn2-c2ccc(F)cc2)cc1C1CN(S(=O)(=O)c2cnn(C(F)F)c2)CCN1CC(C)C (single isomer, unassigned) [Example 59, 5-(4-((1-(difluoromethyl)-1H-pyrazol-4-yl)sulfonyl)-1-isobutylpiperazin-2-yl)-1-(4-fluorophenyl)-6-methyl-1H-indazole] | 22 nM
Cc1cc2c(cnn2-c2ccc(F)cc2)cc1C1CN(S(C)(=O)=O)CCN1CC(C)C (stereo not shown) [Example 39, 1-(4-fluorophenyl)-5-(1-isobutyl-4-(methylsulfonyl)piperazin-2-yl)-6-methyl-1H-indazole] | 57 nM
Cc1ccccc1CN1CCN(S(=O)(=O)c2cnn(C)n2)CC1c1cc2cnn(-c3ccc(F)cc3)c2cc1C (stereo not shown) [Example 71, 1-(4-fluorophenyl)-6-methyl-5-(4-((2-methyl-2H-1,2,3-triazol-4-yl)sulfonyl)-1-(2-methylbenzyl)piperazin-2-yl)-1H-indazole] | 160 nM
Cc1cc2c(cnn2-c2ccc(F)cc2)cc1C1CN(S(=O)(=O)N(C)C2CC2)CCN1CC(C)C (single isomer, unassigned) [Example 62, N-cyclopropyl-3-(1-(4-fluorophenyl)-6-methyl-1H-indazol-5-yl)-4-isobutyl-N-methylpiperazine-1-sulfonamide] | 44 nM
CC(C)CN1CCN(S(=O)(=O)c2cnn(C)n2)CC1c1cc2cnn(-c3ccc(F)cc3)c2cc1Cl (stereo not shown) [Example 24, 6-chloro-1-(4-fluorophenyl)-5-(1-isobutyl-4-((2-methyl-2H-1,2,3-triazol-4-yl)sulfonyl)piperazin-2-yl)-1H-indazole] | 73 nM
Cc1cc2c(cnn2-c2ccc(F)cc2)cc1C1CN(S(=O)(=O)c2cnn(C)n2)CCN1CC(C)(C)C(F)(F)F (single isomer, unassigned) [Example 163, 1-(4-fluorophenyl)-6-methyl-5-(4-((2-methyl-2H-1,2,3-triazol-4-yl)sulfonyl)-1-(3,3,3-trifluoro-2,2-dimethylpropyl)piperazin-2-yl)-1H-indazole] | 44 nM
CCn1cc(S(=O)(=O)N2CCN(CC(C)C(F)(F)F)C(c3cc4cnn(-c5ccc(F)cc5)c4cc3C)C2)cn1 (single isomer, unassigned) [Example 144, 5-(4-((1-ethyl-1H-pyrazol-4-yl)sulfonyl)-1-(3,3,3-trifluoro-2-methylpropyl)piperazin-2-yl)-1-(4-fluorophenyl)-6-methyl-1H-indazole] | 15 nM
CCn1cc(S(=O)(=O)N2CCN(CC(C)C)C(c3cc4cnn(-c5ccc(F)cc5)c4cc3C)C2)cn1 (single isomer, unassigned) [Example 55, 5-(4-((1-ethyl-1H-pyrazol-4-yl)sulfonyl)-1-isobutylpiperazin-2-yl)-1-(4-fluorophenyl)-6-methyl-1H-indazole] | 19 nM
